According to PubChem BioAssay AID1259407 (Chemical Carcinogenesis Research Information System (CCRIS), 2018):
Activity calls are given as the source filed them. The rule behind the calls is not given here.

System: CCRIS mutagenicity, Ames/micronucleus/aberration tests
Experiment: CCRIS mutagenicity studies
[1] = Test System: AMES SALMONELLA TYPHIMURIUM, Strain/Indicator: TA97, Metabolic Activation: HAMSTER, LIVER, S-9, AROCLOR 1254 (10 OR 30%), Method: PREINCUBATION
[2] = Test System: AMES SALMONELLA TYPHIMURIUM, Strain/Indicator: TA97, Metabolic Activation: NONE, Method: PREINCUBATION
[3] = Test System: AMES SALMONELLA TYPHIMURIUM, Strain/Indicator: TA97, Metabolic Activation: RAT, LIVER, S-9, AROCLOR 1254 (10 OR 30%), Method: PREINCUBATION
[4] = Test System: AMES SALMONELLA TYPHIMURIUM, Strain/Indicator: TA98, Metabolic Activation: HAMSTER, LIVER, S-9, AROCLOR 1254 (10 OR 30%), Method: PREINCUBATION
[5] = Test System: AMES SALMONELLA TYPHIMURIUM, Strain/Indicator: TA98, Metabolic Activation: NONE, Method: PREINCUBATION
[6] = Test System: AMES SALMONELLA TYPHIMURIUM, Strain/Indicator: TA98, Metabolic Activation: RAT, LIVER, S-9, AROCLOR 1254 (10 OR 30%), Method: PREINCUBATION
[7] = Test System: AMES SALMONELLA TYPHIMURIUM, Strain/Indicator: TA100, Metabolic Activation: HAMSTER, LIVER, S-9, AROCLOR 1254 (10 OR 30%), Method: PREINCUBATION
[8] = Test System: AMES SALMONELLA TYPHIMURIUM, Strain/Indicator: TA100, Metabolic Activation: NONE, Method: PREINCUBATION
[9] = Test System: AMES SALMONELLA TYPHIMURIUM, Strain/Indicator: TA100, Metabolic Activation: RAT, LIVER, S-9, AROCLOR 1254 (10 OR 30%), Method: PREINCUBATION
[10] = Test System: AMES SALMONELLA TYPHIMURIUM, Strain/Indicator: TA1535, Metabolic Activation: HAMSTER, LIVER, S-9, AROCLOR 1254 (10 OR 30%), Method: PREINCUBATION
[11] = Test System: AMES SALMONELLA TYPHIMURIUM, Strain/Indicator: TA1535, Metabolic Activation: NONE, Method: PREINCUBATION
[12] = Test System: AMES SALMONELLA TYPHIMURIUM, Strain/Indicator: TA1535, Metabolic Activation: RAT, LIVER, S-9, AROCLOR 1254 (10 OR 30%), Method: PREINCUBATION
[13] = Test System: Ames Salmonella typhimurium, Strain/Indicator: TA98, Metabolic Activation: None, Method: Preincubation
[14] = Test System: AMES SALMONELLA TYPHIMURIUM, Strain/Indicator: TA98, Metabolic Activation: RAT, LIVER, S-9, AROCLOR 1254, Method: STANDARD PLATE
[15] = Test System: AMES SALMONELLA TYPHIMURIUM, Strain/Indicator: TA100, Metabolic Activation: NONE, Method: STANDARD PLATE
[16] = Test System: AMES SALMONELLA TYPHIMURIUM, Strain/Indicator: TA100, Metabolic Activation: RAT, LIVER, S-9, AROCLOR 1254, Method: STANDARD PLATE

## COC(=O)C(Cl)CCC(Cl)CCCCCC(Cl)CCC(Cl)CCCCCl (configuration not stated)
[1]
  mutagenic call: inactive; negative
[2]
  mutagenic call: inactive; negative
[3]
  mutagenic call: inactive; negative
[4]
  mutagenic call: inactive; negative
[5]
  mutagenic call: inactive; negative
[6]
  mutagenic call: inactive; negative
[7]
  mutagenic call: inactive; negative
[8]
  mutagenic call: inactive; negative
[9]
  mutagenic call: inactive; negative
[10]
  mutagenic call: inactive; negative
[11]
  mutagenic call: inactive; negative
[12]
  mutagenic call: inactive; negative

## ClC(Cl)(Cl)c1nc(-c2ccc3c(c2)OCO3)nc(C(Cl)(Cl)Cl)n1
End Point: In vitro chromosomal aberrations, Test System: Chinese hamster lung (CHL/IU) cells, Metabolic Activation: Rat, Liver, S-9, Phenobarbital and 5,6-benzoflavone
  mutagenic call: active; positive (structural changes and ploidy). ploidy response weak and not dose rela
[13]
  mutagenic call: inactive; negative
Test System: Ames Salmonella typhimurium, Strain/Indicator: TA98, Metabolic Activation: Rat, Liver, S-9, Phenobarbital and 5,6-benzoflavone, Method: Preincubation
  mutagenic call: inactive; negative
Test System: Ames Salmonella typhimurium, Strain/Indicator: TA100, Metabolic Activation: None, Method: Preincubation
  mutagenic call: active; positive
Test System: Ames Salmonella typhimurium, Strain/Indicator: TA100, Metabolic Activation: Rat, Liver, S-9, Phenobarbital and 5,6-benzoflavone, Method: Preincubation
  mutagenic call: active; positive
Test System: Ames Salmonella typhimurium, Strain/Indicator: TA1535, Metabolic Activation: None, Method: Preincubation
  mutagenic call: inactive; negative
Test System: Ames Salmonella typhimurium, Strain/Indicator: TA1535, Metabolic Activation: Rat, Liver, S-9, Phenobarbital and 5,6-benzoflavone, Method: Preincubation
  mutagenic call: active; positive
Test System: Ames Salmonella typhimurium, Strain/Indicator: TA1537, Metabolic Activation: None, Method: Preincubation
  mutagenic call: inactive; negative
Test System: Ames Salmonella typhimurium, Strain/Indicator: TA1537, Metabolic Activation: Rat, Liver, S-9, Phenobarbital and 5,6-benzoflavone, Method: Preincubation
  mutagenic call: inactive; negative
Test System: E. coli, Strain/Indicator: WP2uvrA/pKM101, Metabolic Activation: None, Method: Preincubation
  mutagenic call: inactive; negative
Test System: E. coli, Strain/Indicator: WP2uvrA/pKM101, Metabolic Activation: Rat, Liver, S-9, Phenobarbital and 5,6-benzoflavone, Method: Preincubation
  mutagenic call: inactive; negative

## O=C(O)c1cn(C2CC2)c2c(Cl)c(N3C[C@@H]4CCCN[C@@H]4C3)c(F)cc2c1=O
Test System: CHINESE HAMSTER V-79, Strain/Indicator: V-79 (HGPRT)/6-THIOGUANINE, Metabolic Activation: NONE, Method: STANDARD PLATE
  mutagenic call: active; positive
Test System: CHINESE HAMSTER, Strain/Indicator: V-79(HPRT)/6-THIOGUANINE, Metabolic Activation: NONE, Method: SUSPENSION/PLATE
  mutagenic call: active; positive

## CCCOc1cc(N=Nc2ccc(N(CC)CC)cc2)ccc1N=Nc1c(S(=O)(=O)O)cc2ccc(N)cc2c1O
[14]
  mutagenic call: active; positive
[15]
  mutagenic call: inactive; negative
[16]
  mutagenic call: inactive; negative
Test System: AMES SALMONELLA TYPHIMURIUM, Strain/Indicator: TA1538, Metabolic Activation: NONE, Method: STANDARD PLATE
  mutagenic call: inactive; negative
Test System: AMES SALMONELLA TYPHIMURIUM, Strain/Indicator: TA1538, Metabolic Activation: RAT, LIVER, S-9, AROCLOR 1254, Method: STANDARD PLATE
  mutagenic call: active; positive

## CNC(=O)c1ccccc1
[1]
  mutagenic call: inactive; negative
[2]
  mutagenic call: inactive; negative
[3]
  mutagenic call: inactive; negative
[4]
  mutagenic call: inactive; negative
[5]
  mutagenic call: inactive; negative
[6]
  mutagenic call: inactive; negative
[7]
  mutagenic call: inactive; negative
[8]
  mutagenic call: inactive; negative
[9]
  mutagenic call: inactive; negative
[10]
  mutagenic call: inactive; negative
[11]
  mutagenic call: inactive; negative
[12]
  mutagenic call: inactive; negative

## NC(Cc1ccc(Cl)cc1)C(=O)O (configuration not stated)
Test System: AMES SALMONELLA TYPHIMURIUM, Strain/Indicator: TA98, Metabolic Activation: NONE
  mutagenic call: inactive; negative
Test System: AMES SALMONELLA TYPHIMURIUM, Strain/Indicator: TA100, Metabolic Activation: NONE
  mutagenic call: inactive; negative
Test System: AMES SALMONELLA TYPHIMURIUM, Strain/Indicator: TA1535, Metabolic Activation: NONE
  mutagenic call: inactive; negative
Test System: AMES SALMONELLA TYPHIMURIUM, Strain/Indicator: TA1537, Metabolic Activation: NONE
  mutagenic call: inactive; negative
Test System: B. SUBTILIS, Strain/Indicator: BD190 REC, Metabolic Activation: NONE, Method: SPOT TEST
  mutagenic call: inactive; negative
Test System: E.COLI, Strain/Indicator: WP6 POLA, Metabolic Activation: NONE, Method: SPOT TEST
  mutagenic call: inactive; negative

## CCCC(=O)OCc1cccc([N+](=O)[O-])c1
[5]
  mutagenic call: inactive; negative
[8]
  mutagenic call: inactive; negative
Test System: AMES SALMONELLA TYPHIMURIUM, Strain/Indicator: TA100, Metabolic Activation: RAT, LIVER, S-9, AROCLOR 1254, Method: PREINCUBATION
  mutagenic call: inactive; negative

## CCCCOCN(C(=O)CCl)c1c(CC)cccc1CC
[15]
  mutagenic call: inactive; negative
Test System: AMES SALMONELLA TYPHIMURIUM, Strain/Indicator: TA100, Metabolic Activation: S-9 MIX, Method: STANDARD PLATE
  mutagenic call: active; positive
Test System: Ames Salmonella typhimurium, Strain/Indicator: TA97, Metabolic Activation: None, Method: Suspension
  mutagenic call: inactive; negative
Test System: Ames Salmonella typhimurium, Strain/Indicator: TA97, Metabolic Activation: Rat, Liver, S-9, Aroclor 1254 (10% v/v), Method: Preincubation
  mutagenic call: inactive; negative
[13]
  mutagenic call: inactive; negative
Test System: Ames Salmonella typhimurium, Strain/Indicator: TA98, Metabolic Activation: Rat, Liver, S-9, Aroclor 1254 (10% v/v), Method: Suspension
  mutagenic call: inactive; negative
Test System: Ames Salmonella typhimurium, Strain/Indicator: TA100, Metabolic Activation: None, Method: Suspension
  mutagenic call: inactive; negative
Test System: Ames Salmonella typhimurium, Strain/Indicator: TA100, Metabolic Activation: Rat, Liver, S-9, Aroclor 1254 (10% v/v), Method: Suspension
  mutagenic call: inactive; negative

## O=Nc1ccc(NNc2ccccc2)cc1
[14]
  mutagenic call: active; positive
[16]
  mutagenic call: active; positive

## Cc1ccc(O)cc1
Test System: Ames Salmonella typhimurium, Strain/Indicator: TA98, Metabolic Activation: Hamster, Liver, S-9, Aroclor 1254 (10%), Method: Preincubation
  mutagenic call: inactive; negative
[13]
  mutagenic call: inactive; negative
Test System: Ames Salmonella typhimurium, Strain/Indicator: TA98, Metabolic Activation: Rat, Liver, S-9, Aroclor 1254 (10%), Method: Preincubation
  mutagenic call: inactive; negative
Test System: Ames Salmonella typhimurium, Strain/Indicator: TA100, Metabolic Activation: Rat, Liver, S-9, Aroclor 1254 (10%), Method: Preincubation
  mutagenic call: inactive; negative
Test System: Ames Salmonella typhimurium, Strain/Indicator: TA1535, Metabolic Activation: Rat, Liver, S-9, Aroclor 1254 (10%), Method: Preincubation
  mutagenic call: inactive; negative
Test System: Ames Salmonella typhimurium, Strain/Indicator: TA1537, Metabolic Activation: Rat, Liver, S-9, Aroclor 1254 (10%), Method: Preincubation
  mutagenic call: inactive; negative
